Results on two molecules are retold here after publication PMC3960879 (Biology, 2013).

The target in assay [1] is F17aG lectin domain (Escherichia coli, UniProt Q99003). The note with it: array version 4.1, exp. 2053. An excerpt:
With mammalian printed array version 4.1, a new evaluation parameter was taken into account, namely % CV = 100 × Std. Dev/Mean. The highest and the lowest point from each set of six replicates have been removed so the average is of 4 values rather than 6. This eliminates some of the false hits that contain a single very high or low point. Thus, points with a high % CV should be considered suspect. […] This comparison provides information on binding specificity. The CFG glycan array data are available containing searchable results by means of flex-based data browser tools.
(§1) A microarray presenting 264 different glycans (mammalian printed array version 2 from the CFG, experiment 400) was used to evaluate whether the F17G variant lectin domains differ in the range of glycan receptors that they can recognize, thereby establishing strain-dependent tropism. […] The glycan array screening has been repeated for F17aG only on printed array version 4.1 (experiment 2053) (Figure 1).

Assay [2] concerns the target F17bG lectin domain (Escherichia coli, UniProt Q47200). As to conditions: array version 2, exp. 400. The procedure: A microarray presenting 264 different glycans (mammalian printed array version 2) was used to evaluate if the F17G variant lectin domains differ in the range of glycan receptors that they recognize, thereby establishing tropism. The microarray was set up within the Consortium for Functional Glycomics (CFG) ([20], and supplemental data). Binding of F17G (200 µg/mL) was detected using anti-F17G polyclonal rabbit IgG (10 µg/mL), followed by fluorescently labelled goat anti-rabbit polyclonal antibodies (IgG-488, 5 µg/mL).
as §1
Printed array version 2 at the Consortium for Functional Glycomics was used for glycan array screening of the variant F17G receptor binding domains. Slides were printed, with six replicates for each glycan, using glycan spotting concentrations of 100 μM, at the Consortium Carbohydrate Synthesis/Protein Expression Core D located at the Scripps Research Institute onto Schott Nexterion H slides (Schott Cat. No. 1070936B). Slide conditioning: preprinted slides were soaked in deionized water for 5 minutes at room temperature and dried under a stream of nitrogen. TSM buffer (20 mM Tris-HCl, pH 7.4, or MOPS 20 mM; 150 mM NaCl; 2 mM CaCl2, 2 mM MgCl2) was used as wash buffer (TSM buffer + 0.05% Tween 20) or binding buffer (TSM buffer + 0.05% Tween 20 + 1% BSA). (1) F17G was diluted to 200 μg/mL (Figure 1) in TSM binding buffer. (2) 50 μL of F17G was applied to the printed surface and coverslipped. (3) The slide was incubated, protected from light, in a humidified chamber for 1 hour at RT. (4) The slide was washed once in TSM wash buffer. 50 μL of the anti-F17G (10 μg/mL) polyclonal rabbit IgG were applied, coverslipped and incubated for 1 h at RT. (5) The slide was washed once in TSM wash buffer. Fifty μL of fluorescently labelled secondary goat anti-rabbit polyclonal antibodies (IgG-488, 5 µg/mL) were applied, coverslipped and incubated for 1 h at RT. (6) Slide was removed, followed by the coverslip, and washed for 10 s each in TSM wash buffer, TSM wash buffer lacking Tween 20, and deionized water. The slide was dried under a stream of nitrogen. (7) The binding image was read in a Perkin Elmer Microscanarray XL4000 scanner and tiff file of image stored. (8) Image analysis was performed using Imagene (V.6) image analysis software. (9) Raw data results files were generated in Excel format and uploaded to the Consortium database as .dat files. (10) Imagene data was uploaded to the database as .txt files.

Assay [3] has as its system FedF lectin domain. Put plainly: CFG glycan array version 2 (experiment 399), FedF lectin domain. The note with it: CFG glycan array experiment 399; FedF 100 μg/mL. It counts as binding, Escherichia coli. An excerpt: The most highly, triple, sulfated disaccharide (1) is here the best binder: Galβ1,4GlcNAc sulfated at positions 3', 6' and 6 (Table 3). Sulfation of the O6 hydroxyl (2) of GlcNAc is important, as well as N-acetylation on its position 2 (3) because the lactose form has lower affinity. Monosulfation on the non-reducing end galactose (one ion at either 3', 6' or 4') and lack of sulfation at the reducing end GlcNAc each decrease the fluorescence signal dramatically.

Assay [4] has as its system FimH. Details: method as in PMID 18446213. As to conditions: cited from earlier work.

SMILES strings stand for the structures.

Chain of F17bG lectin domain (Q47200 23-199): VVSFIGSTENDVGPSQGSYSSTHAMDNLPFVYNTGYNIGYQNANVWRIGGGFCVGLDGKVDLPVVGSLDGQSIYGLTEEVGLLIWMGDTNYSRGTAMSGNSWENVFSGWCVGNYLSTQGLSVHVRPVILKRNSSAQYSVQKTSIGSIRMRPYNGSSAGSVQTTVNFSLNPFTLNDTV
Chain of F17aG lectin domain (Q99003 23-199): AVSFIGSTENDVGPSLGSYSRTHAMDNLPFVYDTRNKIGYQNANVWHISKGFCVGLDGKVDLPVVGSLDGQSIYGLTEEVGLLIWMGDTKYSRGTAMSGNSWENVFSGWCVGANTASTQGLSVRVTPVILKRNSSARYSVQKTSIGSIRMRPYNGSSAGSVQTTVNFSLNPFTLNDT

Take `CC(=O)NC1C(O)OC(COS(=O)(=O)O)C(OC2OC(CO)C(O)C(OS(=O)(=O)O)C2O)C1O` (stereo not shown) [[3OSO3]Galβ1,4[6OSO3]GlcNAc]: the “Rank among binders on CFG array, F17aG” value in assay [1] was “tenth best binder”. Further, the “Rank among binders on CFG array, F17bG (variant b)” value in assay [2] came out at 28th best binder. Also, in assay [3], the “RFU (averaged Relative Fluorescence Units for the six replicates), FedF lectin domain” value is 6,806 RFU.

Turning to `CC(=O)N[C@H]1[C@H](O[C@H]2[C@H](O)[C@@H](NC(C)=O)C(O)O[C@@H]2CO)O[C@H](CO)[C@@H](O[C@@H]2O[C@H](CO[C@H]3O[C@H](CO)[C@@H](O)[C@H](O)[C@@H]3O)[C@@H](O)[C@H](O[C@H]3O[C@H](CO)[C@@H](O)[C@H](O)[C@@H]3O)[C@@H]2O)[C@@H]1O` (stereo partly shown) [oligomannose-3], the “increased binding compared to α-D-mannose” value in assay [4] was 100 fold.
